Source: publication PMC11249977, “Investigating Penetration and Antimicrobial Activity of Vector-Bicycle Conjugates” (ACS Infectious Diseases, 2024)
In brackets after ≈: the same amount, converted by molar mass. Read-outs that look alike come from different tables or passages of the source. Non-standard residues stand in square brackets, D forms with d. Residues, ends and D or L forms follow the SMILES beside them. Dap(N3) = [N-]=[N+]=NC[C@H](N)C(=O)O

Test system: E. coli (ATCC25922)
Type: cell-based, Escherichia coli
Conditions: for MIC (μg/ml), repeat 1 / MIC (μg/ml), repeat 2 / MIC (μg/ml), repeat 3: ATCC25922
Text: To determine how the cell killing ability of the vector-Bicycle variants changed when compared to the original vector, their antimicrobial activity was examined against a clinical strain of E. coli (ATCC25922) in cation-adjusted Mueller Hinton broth (CaMHB). The minimum inhibitory concentration (MIC) is defined as the lowest concentration of compound that completely prevents bacterial growth (Table 2). The unconjugated Bicycle molecule (AB1) and the original unconjugated vector (AV1) were used to make the MAP-Bicycle conjugate A1. All MAP-Bicycle conjugates contain the AB1 Bicycle molecule, linked to a variant of the original MAP (e.g., C2, S2, H6). The unconjugated MAP variants are labeled with the equivalent letter and number but with a “V” included in the name (e.g., CV2, SV2, HV6, see Table 1 for all vector variants).
Bacterial stock was streaked onto LB agar plates and incubated at 37 °C for 16–18 h. Using a sterile swab, single colonies were picked and resuspended in 2 mL of 0.9% saline solution, visually matching the turbidity of a 0.5 McFarland standard and having an OD600 nm of 0.18–0.25 (which corresponds to […]). The suspension was diluted 200-fold in cation-adjusted Mueller–-Hinton Broth (Ca-MHB), and 100 μL of the diluted culture was pipetted in wells of a 96-well plate containing 100 μL of a 2-factor dilution series of a compound per row of wells. The plate was incubated at 37 °C for 19 h. Afterward, the OD600 nm of each well was read using a Pherastar FSX plate reader. MIC values were determined, with the MIC being the lowest concentration of the compound at which growth was absent (i.e., OD600 nm was equivalent to no growth, as observed in carbenicillin control wells). This was also verified visually. […]

[1] = E. coli ATCC25922, CaMHB, 37 °C, 19 h, OD600 nm read, range of at least 3 biological repeats

| Compound | MIC (ATCC25922, 19 h) [µM] | MIC [1] [µg/mL] | MIC (μg/ml), repeat 1 [µg/mL] | MIC (μg/ml), repeat 2 [µg/mL] | MIC (μg/ml), repeat 3 [µg/mL] |
| --- | --- | --- | --- | --- | --- |
| CC(C)C[C@@H](NC(=O)[C@@H](CCCNC(=N)N)NC(=O)[C@@H](CCCNC(=N)N)NC(=O)[C@H](NC(=O)[C@@H](Cc1c[nH]c2ccccc12)NC(=O)[C@@H](CCCNC(=N)N)NC(=O)[C@@H](CO)NC(=O)[C@@H](Cc1c[nH]c2ccccc12)NC(=O)[C@@H](CCCNC(=N)N)NC(=O)[C@@H](N)CN=[N+]=[N-])C(C)C)C(=O)N[C@H](CO)C(=O)N[C@H](CCCCN)C(N)=O [AV1] (H-[Dap(N3)][dR][dW][dS][dR][dW][dV][dR][dR][dL][dS][dK]-NH2; N-terminus and C-terminus assumed) | 19.5 | 32 |  |  |  |
| CC(C)C[C@@H](NC(=O)[C@@H](CCCNC(=N)N)NC(=O)[C@@H](CCCNC(=N)N)NC(=O)[C@H](NC(=O)[C@@H](Cc1c[nH]c2ccccc12)NC(=O)[C@@H](CCCNC(=N)N)NC(=O)[C@@H](CO)NC(=O)[C@@H](CCCNC(=N)N)NC(=O)[C@@H](CCCNC(=N)N)NC(=O)[C@@H](N)CN=[N+]=[N-])C(C)C)C(=O)N[C@H](CO)C(=O)N[C@H](CCCCN)C(N)=O [CV1] (H-[Dap(N3)][dR][dR][dS][dR][dW][dV][dR][dR][dL][dS][dK]-NH2; N-terminus and C-terminus assumed) | >39.7 |  | > 64 | > 64 | > 64 |
| CC(C)C[C@@H](NC(=O)[C@@H](CCCNC(=N)N)NC(=O)[C@@H](CCCNC(=N)N)NC(=O)[C@H](NC(=O)[C@@H](Cc1c[nH]c2ccccc12)NC(=O)[C@@H](CCCNC(=N)N)NC(=O)[C@@H](CCCNC(=N)N)NC(=O)[C@@H](Cc1c[nH]c2ccccc12)NC(=O)[C@@H](CCCNC(=N)N)NC(=O)[C@@H](N)CN=[N+]=[N-])C(C)C)C(=O)N[C@H](CO)C(=O)N[C@H](CCCCN)C(N)=O [CV2] (H-[Dap(N3)][dR][dW][dR][dR][dW][dV][dR][dR][dL][dS][dK]-NH2; N-terminus and C-terminus assumed) | 9.4 | 16 |  |  |  |
| CC(C)C[C@@H](NC(=O)[C@@H](CCCNC(=N)N)NC(=O)[C@@H](CCCNC(=N)N)NC(=O)[C@H](NC(=O)[C@@H](CCCNC(=N)N)NC(=O)[C@@H](CCCNC(=N)N)NC(=O)[C@@H](CO)NC(=O)[C@@H](Cc1c[nH]c2ccccc12)NC(=O)[C@@H](CCCNC(=N)N)NC(=O)[C@@H](N)CN=[N+]=[N-])C(C)C)C(=O)N[C@H](CO)C(=O)N[C@H](CCCCN)C(N)=O [CV3] (H-[Dap(N3)][dR][dW][dS][dR][dR][dV][dR][dR][dL][dS][dK]-NH2; N-terminus and C-terminus assumed) | >39.7 |  | > 64 | > 64 | > 64 |
| CC(C)C[C@@H](NC(=O)[C@@H](CCCNC(=N)N)NC(=O)[C@@H](CCCNC(=N)N)NC(=O)[C@@H](CCCNC(=N)N)NC(=O)[C@@H](Cc1c[nH]c2ccccc12)NC(=O)[C@@H](CCCNC(=N)N)NC(=O)[C@@H](CO)NC(=O)[C@@H](Cc1c[nH]c2ccccc12)NC(=O)[C@@H](CCCNC(=N)N)NC(=O)[C@@H](N)CN=[N+]=[N-])C(=O)N[C@H](CO)C(=O)N[C@H](CCCCN)C(N)=O [CV4] (H-[Dap(N3)][dR][dW][dS][dR][dW][dR][dR][dR][dL][dS][dK]-NH2; N-terminus and C-terminus assumed) | 18.8 | 32 |  |  |  |
| CC(C)[C@@H](NC(=O)[C@@H](Cc1c[nH]c2ccccc12)NC(=O)[C@@H](CCCNC(=N)N)NC(=O)[C@@H](CO)NC(=O)[C@@H](Cc1c[nH]c2ccccc12)NC(=O)[C@@H](CCCNC(=N)N)NC(=O)[C@@H](N)CN=[N+]=[N-])C(=O)N[C@H](CCCNC(=N)N)C(=O)N[C@H](CCCNC(=N)N)C(=O)N[C@H](CCCNC(=N)N)C(=O)N[C@H](CO)C(=O)N[C@H](CCCCN)C(N)=O [CV5] (H-[Dap(N3)][dR][dW][dS][dR][dW][dV][dR][dR][dR][dS][dK]-NH2; N-terminus and C-terminus assumed) | 19 | 32 |  |  |  |
| CC(C)C[C@@H](NC(=O)[C@@H](CCCNC(=N)N)NC(=O)[C@@H](CCCNC(=N)N)NC(=O)[C@H](NC(=O)[C@@H](Cc1c[nH]c2ccccc12)NC(=O)[C@@H](CCCNC(=N)N)NC(=O)[C@@H](CCCNC(=N)N)NC(=O)[C@@H](CCCNC(=N)N)NC(=O)[C@@H](CCCNC(=N)N)NC(=O)[C@@H](N)CN=[N+]=[N-])C(C)C)C(=O)N[C@H](CO)C(=O)N[C@H](CCCCN)C(N)=O [CV8] (H-[Dap(N3)][dR][dR][dR][dR][dW][dV][dR][dR][dL][dS][dK]-NH2; N-terminus and C-terminus assumed) |  |  | 64 (≈ 38.1 µM) | 64 (≈ 38.1 µM) | > 64 |
| CAzal - dR dW dS dR dW dV dR dR dL dR dK – CONH2 [CV6, standalone MAP vector variant of AV1, single arginine substitution] |  | 16 |  |  |  |
| CAzal - dR dW dS dR dW dV dR dR dR dR dK – CONH2 [CV12, standalone MAP vector variant of AV1, double arginine substitution] |  | 16 |  |  |  |
